This note sets out measurements from patent publication US6420563B1, “Small molecule modulators of G protein-coupled receptor six” (Arena Pharmaceuticals, Inc., priority 1998, dated 2002).

For assay [1], the target named is T1, GPR6:Gsα-Fusion Protein (Homo sapiens, UniProt P46095).
T1 construct: expressed in transfected cells
Kind of assay: [35S]GTPγS membrane binding assay (Example 4A). Format: biochemical. Conditions: mean +/- standard deviation (number of assays in brackets); read-out: IC50 Values GTP Assay Example 4A. On the procedure:
The assay plates were then centrifuged at 400 rpm for 15 minutes at room temperature and then subsequently aspirated and counted in a scintillation counter.
Membranes expressing the GPCR6:Gsα-Fusion Protein (see Example 2) and for use in the direct identification of candidate compounds as inverse agonists, agonists or partial agonists were prepared as follows:
All materials were kept on ice throughout the procedure. Firstly, the media was aspirated from a confluent monolayer of cells, followed by rinse with 10 ml cold PBS, followed by aspiration. Thereafter, 5 ml of membrane Scrape Buffer was added to scrape cells; this was followed by transfer of cellular extract into 50 ml centrifuge tubes (centrifuged at 20,000 rpm for 17 minutes at 4° C.). Thereafter, the supernatant was aspirated and the pellet was resuspended in 30 ml Membrane Wash Buffer followed by centrifuge at 20,000 rpm for 17 minutes at 4° C. The supernatant was then aspirated and the pellet resuspended in Binding Buffer. This was then homogenized using a Brinkman polytron™ homogenizer (15-20 second bursts until the all material was in suspension). This is referred to herein as “Membrane Protein”.
Candidate compounds (Tripos, Inc., St. Louis, Mo.) were received in 96-well plates (these can be frozen at −80° C.). Membrane Protein (or membranes with expression vector excluding the GPR6:Gsα-Fusion Protein, as control), were homogenized briefly until in suspension. Protein concentration was then determined using the Bradford Protein Assay set forth above. […] Thereafter, 100 ul GDP Buffer was added to each well of a Wallac Scintistrip™ (Wallac). A 5 ul pin-tool was then used to transfer 5 ul of a candidate compound into such well (i.e., 5 ul in total assay volume of 200 ul is a 1:40 ratio such that the final screening concentration of the candidate compound is 10 uM). Again, to avoid contamination, after each transfer step the pin tool was rinsed in three reservoirs comprising water (1×), ethanol (1×) and water (2×)—excess liquid should be shaken from the tool after each rinse and dried with paper towels and kimwipes™. Thereafter, 50 ul of Membrane Protein was added to each well (a control well comprising membranes without the GPCR Fusion Protein is also utilized), and pre-incubated for 5-10 minutes at room temperature (the plates were covered with foil in that the candidate compounds obtained from Tripos are light sensitive). Thereafter, 50 ul of [^35S]GTPγS (0.6 nM) in Binding Buffer was added to each well, followed by incubation on a shaker for 60 minutes at room temperature (again, in this example, plates were covered with foil). The assay was then stopped by spinning of the plates at 4000 RPM for 15 minutes at 22° C. The plates were then aspirated with an 8 channel manifold and sealed with plastic plate covers. The plates were then read on a Wallac 1450 using setting “Prot. #37” (as per manufacturer instructions).
The initial or “primary” screen designed to directly identify, e.g., human GPR6 receptor inverse agonists, consisted of the membrane-based GTPγS binding assay of Example 4A utilizing membranes prepared from 293 stable cells. Candidate compounds directly identified as inhibiting receptor-mediated increases in GTPγS as set forth below were considered active “leads”.
It is preferred that following such direct identification, IC50 (inverse agonist) or EC50 (agonist) values be determined; those having ordinary skill in the art are credited with utilizing IC50 and EC50 assay protocols of choice. FIG. 4 provides a representative IC50 curve for compound ARE112 using the assay protocol of Example 4A.
In general terms: GTPγS resists hydrolysis and so accumulates on activated G proteins.

The target of assay [2] is T2, GPR6 (Homo sapiens, UniProt P46095).
T2 construct: expressed in transfected cells; 293 cells are used elsewhere
T2 sequence (P46095 whole entry): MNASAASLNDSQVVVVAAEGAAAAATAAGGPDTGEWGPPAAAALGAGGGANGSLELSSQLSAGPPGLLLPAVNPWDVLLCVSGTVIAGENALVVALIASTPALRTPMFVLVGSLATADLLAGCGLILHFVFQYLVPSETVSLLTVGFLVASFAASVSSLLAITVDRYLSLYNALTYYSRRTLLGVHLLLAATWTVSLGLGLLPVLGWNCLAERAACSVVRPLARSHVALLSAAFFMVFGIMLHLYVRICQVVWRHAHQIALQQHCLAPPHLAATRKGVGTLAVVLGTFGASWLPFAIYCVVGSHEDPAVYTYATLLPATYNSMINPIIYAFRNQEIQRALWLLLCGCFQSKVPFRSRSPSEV
As to the kind of experiment: membrane-based cyclic AMP confirmation assay (Example 4C). Format: biochemical. Conditions: mean +/- standard deviation (number of assays in brackets); read-out: IC50 Values Cyclic AMP Assay Example 4C. The source says: Using an independent assay approach to provide confirmation of a directly identified candidate compound as set forth above, it is preferred that a confirmation assay then be utilized. In this case, the preferred confirmation assay is membrane-based cyclic AMP (cAMP) assay.
A modified Flash Plate™ Adenylyl Cyclase kit (New England Nuclear; Cat. No. SMP004A) was utilized for confirmation of candidate compounds directly identified as inverse agonists and agonists to endogenous, constitutively activated orphan GPCRs in accordance with the following protocol.
Transfected stable cells were harvested approximately three days after transfection. Membranes were prepared by homogenization of suspended cells in buffer containing 20 mM HEPES, pH 7.4 and 10 mM MgCl2. Homogenization was performed on ice using a Brinkman Polytron™ for approximately 10 seconds. The resulting homogenate was centrifuged at 20,000 rpm for 20 minutes at 4° C. The resulting pellet was then resuspended in buffer containing 20 mM HEPES, pH 7.4 and 0.1 mM EDTA, homogenized for 10 seconds, followed by centrifugation at 20,000 rpm for 20 minutes at 4° C. The resulting pellet can be stored at −80° C. until utilized. On the day of direct identification screening, the membrane pellet is slowly thawed at room temperature, resuspended in buffer containing 20 mM HEPES, pH 7.4, 100 mM NaCl and 10 mM MgCL2, to yield a final protein concentration of 0.60 mg/ml (the resuspended membranes are placed on ice until use).
Candidate compounds identified as per above (if frozen, thawed at room temperature) were added to plate wells (3 μl/well; 12 μM final assay concentration), together with 50 μl Membrane Protein (30 μg/well) and 50 μl of Assay Buffer. This admixture was then incubated for 30 minutes at room temperature, with gentle shaking.
Following the incubation, 100 μl of Detection Buffer was added to each well, followed by incubation for 2-20 hours. Plates were subsequently aspirated and then counted in a Wallac MicroBeta™ plate reader using “Prot. #31” (as per manufacturer instructions).

The nature of assay [3]: Food/water intake and body weight in 24-hour food deprived rats, oral gavage (PO). Format: in vivo, rat. The procedure:
Based upon the in vivo data developed, oral bioavailability of compound ARE112 was determined. The compound was administered by oral gavage at doses ranging from 6.75 to 54 mg/kg. The data presented in FIGS. 9A and 9B support the conclusion that oral administration of ARE112 also decreases food intake in both food-deprived and non-food deprived rats. […] In FIG. 9A, rats were deprived 24 hours prior to oral administration of the compound. In this assay, the vehicle-treated rats at 2.5 hours consumed […] of food while injected rats; particularly rats administered with 27 and 54 mg/kg of ARE 112, ate about 6 and 4 grams, respectively. […] (See, FIG. 9A).
Several other GPR6 inverse agonists were also assessed under 24-hour food deprived conditions, with PO administration. The analogs listed below were tested at 200 μmol/kg, which is equivalent to 54 mg/kg. In addition, ARE114 was also assessed at […]. Data are summarized below in Table C:
In a second assay, tested under the same conditions, several other analogs were assessed at 100 μmol/kg.
In FIG. 10, rats were deprived 24 hours prior to oral administration of the compound. In this assay, analogs ARE130, ARE135, ARE136, and ARE140, were administered at a dose of 100 μmol/kg. Three analogs, particularly, ARE130, ARE136 and ARE140 evidenced a slow intake of food (e.g., about 1 to 1.5 grams every two hours) over an eight hour period post-administration; while the vehicle rat consumed about 2 to 2.5 grams food every two hours. Similar to the vehicle rat, analog ARE135, an opened ring structure, evidenced that over an eight hour period post-administration the rats increasingly consumed about 2.5 grams every two hours. (See, FIG. 10A). Furthermore, the body weight of the vehicle rat and administered rats with analog ARE135 gained about 19.5 grams. On the other hand, the closed ring structures evidenced a decrease in body weight gain as follows: ARE112-6 grams, ARE130-9 grams, ARE136-11 grams and ARE140-14 grams. See, FIG. 10C.

Where [4] appears, read: 100 μmol/kg PO, second assay, Table D, vehicle 19.25.

T1 sequence (P46095 with tags, fused parts or gaps): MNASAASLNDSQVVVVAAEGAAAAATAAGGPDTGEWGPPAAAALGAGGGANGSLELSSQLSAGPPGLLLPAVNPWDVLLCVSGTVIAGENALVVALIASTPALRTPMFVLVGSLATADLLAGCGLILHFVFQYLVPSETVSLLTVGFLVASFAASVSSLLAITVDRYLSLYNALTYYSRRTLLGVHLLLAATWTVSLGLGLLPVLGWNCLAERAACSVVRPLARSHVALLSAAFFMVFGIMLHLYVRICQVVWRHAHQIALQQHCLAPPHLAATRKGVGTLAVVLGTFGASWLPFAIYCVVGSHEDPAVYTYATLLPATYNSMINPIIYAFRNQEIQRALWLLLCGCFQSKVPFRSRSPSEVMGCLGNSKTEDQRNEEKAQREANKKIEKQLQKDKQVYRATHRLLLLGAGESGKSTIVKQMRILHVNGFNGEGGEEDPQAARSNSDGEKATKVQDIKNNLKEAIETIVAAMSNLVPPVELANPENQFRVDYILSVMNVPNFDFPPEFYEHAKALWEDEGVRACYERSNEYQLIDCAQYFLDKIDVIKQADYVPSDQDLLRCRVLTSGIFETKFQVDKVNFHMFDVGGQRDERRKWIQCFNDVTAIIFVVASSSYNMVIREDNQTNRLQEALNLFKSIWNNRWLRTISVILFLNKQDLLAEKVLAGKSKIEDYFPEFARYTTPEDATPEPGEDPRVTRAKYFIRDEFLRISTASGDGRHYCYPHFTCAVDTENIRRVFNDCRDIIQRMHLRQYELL

Regarding `COc1cccc(C(=O)NC(=S)N2CCNC2=S)c1` [ARE123, N-(2-thioxo-imidazolidine-1-carbothioyl)-3-methoxybenzamide], the IC50 – broadly, the concentration that gives 50% inhibition – was 56 µM in assay [1] and 51 µM in assay [2]. In the same order, the values of `COc1cccc(C(=O)N=C2SSC3=NCCN32)c1` [ARE124, N-(5,6-dihydro-3H-imidazo[2,1-c]-1,2,4-dithiazol-3-ylidene)-3-methoxybenzamide] are 0.31 µM and 0.4 µM. In the same order, the values of `O=C(N=C1SSC2=NCCN21)c1cccnc1` [ARE156, N-(5,6-dihydro-3H-imidazo[2,1-c]-1,2,4-dithiazol-3-ylidene)-pyridine-3-carboxamide] are 0.67 µM and 0.133 µM. The matching figures for `O=C(N=C1SSC2=NCCN21)c1ccco1` [ARE144, N-(5,6dihydro-3H-imidazo[2,1-c]-1,2,4-dithiazol-3-ylidene)furan-2-carboxamide]: 0.25 µM and 0.11 µM. As to `COc1ccc(C(=O)N=C2SSC3=NCCN32)cc1` [ARE122, N-(5,6-dihydro-3H-imidazo[2,1-c]-1,2,4-dithiazol-3-ylidene)-4-methoxybenzamide], the IC50 in assay [1] was 0.83 µM; in assay [2], 0.21 µM. For the compound `CSc1ncccc1C(=O)NC(=S)N1CCNC1=S` [ARE154, N-(2-thioxo-imidazolidine-1-carbothioyl)-pyridine-2-methylthio-3-carboxamide], in assay [2], the IC50 came out at 80 µM. For the compound `O=C(NC(=S)N1CCNC1=S)c1ccc(F)cc1` [ARE127, N-(2-thioxo-imidazolidine-1-carbothioyl)-4-fluorobenzamide], the IC50 came out at 1.25 µM in assay [1] and 0.48 µM in assay [2]. `O=C(NC(=S)N1CCNC1=S)c1ccccc1` [ARE113, N-(2-thioxo-imidazolidine-1-carbothioyl)-benzamide]: in assay [1], the IC50 was 100 µM. Regarding `O=C(NC(=S)N1CCNC1=S)c1cccc(F)c1` [ARE129, N-(2-thioxo-imidazolidine-1-carbothioyl)-3-fluorobenzamide], the IC50 in assay [1] was found to be 3.19 µM; in assay [2] it was 2.62 µM. The matching figures for `O=C(N=C1SSC2=NCCN21)c1ccc(F)cc1F` [ARE134, N-(5,6-dihydro-3H-imidazo[2,1-c]-1,2,4-dithiazol-3-ylidene)-2,4-difluorobenzamide]: 0.41 µM and 0.19 µM. Regarding `O=C(N=C1SSC2=NCCN21)c1cnn(-c2ccc(Cl)cc2)c1C(F)(F)F` [ARE152, N-(5,6dihydro-3H-imidazo[2,1-c]-1,2,4-dithiazol-3-ylidene)-2-(4-chlorophenyl)-3-(trifluoromethyl)pyrazole-4-carboxamide], in assay [1], the IC50 turned out to be 0.19 µM. As for `Cc1cccc(C(=O)N=C2SSC3=NCCN32)c1` [ARE126, N-(5,6-dihydro-3H-imidazo[2,1-c]-1,2,4-dithiazol-3-ylidene)-3-methylbenzamide], the IC50 in assay [1] amounted to 0.79 µM; in assay [2] it was 0.14 µM. The matching figures for `O=C(NC(=S)N1CCNC1=S)c1cccs1` [ARE111, N-(2-thioxo-imidazolidine-1-carbothioyl)-thiophene-2-carboxamide]: 2.79 µM and 1.96 µM. The matching figures for `O=C(N=C1SSC2=NCCN21)c1ccccc1F` [ARE132, N-(5,6-dihydro-3H-imidazo[2,1-c]-1,2,4-dithiazol-3-ylidene)-2-fluorobenzamide]: 0.35 µM and 0.1 µM. `O=C(/N=C1\SSC2=NCCN21)c1cccc2ccccc12` [ARE138, N-(5,6-dihydro-3H-imidazo[2,1-c]-1,2,4-dithiazol-3-ylidene)-naphthyl-1-carboxamide]: the IC50 in assay [1] amounted to 0.45 µM; in assay [2], 0.13 µM. Regarding `O=C(/N=C1\SSC2=NCCN21)c1ccc2ccccc2c1` [ARE136], the “Cumulative Food Intake (g) (8 hr post administration)” value in assay [3] (100 μmol/kg PO, second assay, Table D, vehicle 14.0) was 9.0 g. In addition, in assay [3] (setting [4]), the “Body Weight Gain (g) (6 hr post administration)” value is on record as 11.0 g and the “Cumulative Water Intake (g) (6 hr post administration)” value is 15.25 g. Also, in assay [3] (100 μmol/kg oral), the “water drunk less than the vehicle animal (FIG. 10B)” value is given as about 4 grams. For the same compound, in assay [3] (100 μmol/kg oral, vehicle about 19.5 grams), the “body weight gain (FIG. 10C)” value was determined as 11 grams. Turning to `O=C(NC(=S)N1CCNC1=S)c1cccc2ccccc12` [ARE137, N-(2-thioxo-imidazolidine-1-carbothioyl)-naphthyl-1-carboxamide], in assay [2], the IC50 turned out to be 100 µM.

For `O=C(NC(=S)N1CCNC1=S)c1cnn(-c2ccc(Cl)cc2)c1C(F)(F)F` [ARE153, N-(2-thioxo-imidazolidine-1-carbothioyl)-2-(4-chlorophenyl)-3-(trifluoromethyl)pyrazole-4-carboxamide], in assay [1], the IC50 stood at 2.46 µM. Take `O=C(NC(=S)N1CCNC1=S)c1ccccc1F` [ARE131, N-(2-thioxo-imidazolidine-1-carbothioyl)-2-fluorobenzamide]: in assay [1], the IC50 was 43 µM.
